Two compounds from patent US5986103A, “2-alkyl-1H-imidazole-5-carboxylic acids” (Hoechst Marion Roussel, priority 1995, dated 1999) can be followed below.

In one assay the target is T1, Endothelin A receptor (Rattus norvegicus, UniProt P26684).
T1 construct: A membrane preparation is prepared from the heart (ventricles) of a rat; from tissue; host or cells: rat heart ventricles, membrane preparation
T1 sequence (P26684 21-426): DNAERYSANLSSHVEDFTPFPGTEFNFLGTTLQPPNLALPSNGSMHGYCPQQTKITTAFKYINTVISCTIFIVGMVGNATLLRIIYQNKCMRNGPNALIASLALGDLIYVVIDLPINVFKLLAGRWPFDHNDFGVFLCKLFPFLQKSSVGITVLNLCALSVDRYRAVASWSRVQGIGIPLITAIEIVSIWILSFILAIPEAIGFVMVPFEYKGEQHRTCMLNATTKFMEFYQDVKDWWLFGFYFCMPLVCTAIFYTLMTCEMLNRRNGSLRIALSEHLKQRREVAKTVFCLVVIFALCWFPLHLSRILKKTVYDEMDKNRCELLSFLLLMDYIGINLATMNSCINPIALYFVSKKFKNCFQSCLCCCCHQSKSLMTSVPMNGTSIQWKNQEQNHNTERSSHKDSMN
The assay is described as follows: Affinity for the Endothelin A receptor: displacement of 125I endothelin from rat heart (ventricles) membrane preparation. It is filed as binding. Conditions: rat heart (ventricles) membranes, 25° C. for 60 minutes, pH 7.4, read-out: Endothelin A receptor IC50 in nanomoles. As for the experimental part:
1) Study of the Affinity for the Endothelin A Receptor
A membrane preparation is prepared from the heart (ventricles) of a rat. The tissue is ground up in a POLYTRON in a 50 mM Tris buffer pH=7.4.
After 30 minutes at 25° C. (W.B.) the homogenate is centrifuged at 30,000 g for 15 minutes (2 centrifugations with intermediate take-up in the Tris buffer pH. 7.4).
The pellets are suspended in an incubation buffer (25 mM Tris, 5 microg/ml pepstatin A, 3 microg/ml aprotinin, 0.1 mM PMSF, 3 mM EDTA, 1 mM EGTA pH 7.4).
2 ml aliquoted fractions are distributed in hemolysis tubes and ^125 I endothelin (approximately 50,000 dpm/tube) and the product to be studied are added. (The product is first tested at 3×10^-5 M three times). When the tested product displaces more than 50% of radioactivity specifically bound to the receptor, it is tested again according to a range of 7 concentrations in order to determine the concentration which inhibits by 50% the radioactivity specifically bound to the receptor. In this way the 50% inhibitory concentration is determined.
(§1) The non-specific bond is determined by the addition of endothelin at 10^-6 M (three times). After incubation at 25° C. for 60 minutes, replacing in a water-bath at 0° C. for 5 minutes, filtration under reduced pressure and rinsing with Tris buffer pH 7.4, the radioactivity is counted in the presence of scintillating Triton. […]
Background: Loss of bound radioactivity is the signal in a displacement assay; it reports binding, not function.

A further assay deals with T2, Endothelin B receptor (Rattus norvegicus, UniProt P21451).
T2 construct: A membrane preparation is prepared from the rear cortex plus the cerebellum of a rat; from tissue; host or cells: rat rear cortex plus cerebellum, membrane preparation
T2 sequence (P21451 27-442): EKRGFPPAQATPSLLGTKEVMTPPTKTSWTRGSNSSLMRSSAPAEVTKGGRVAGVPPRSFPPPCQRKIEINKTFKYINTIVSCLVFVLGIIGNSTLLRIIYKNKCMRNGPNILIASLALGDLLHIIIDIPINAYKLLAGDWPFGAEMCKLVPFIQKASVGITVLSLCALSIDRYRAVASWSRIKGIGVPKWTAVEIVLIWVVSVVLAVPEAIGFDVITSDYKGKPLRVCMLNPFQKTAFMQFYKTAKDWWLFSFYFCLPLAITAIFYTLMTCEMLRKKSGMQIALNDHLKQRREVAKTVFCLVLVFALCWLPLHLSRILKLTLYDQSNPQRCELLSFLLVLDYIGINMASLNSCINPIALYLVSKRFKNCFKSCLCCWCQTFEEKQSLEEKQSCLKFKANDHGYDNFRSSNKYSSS
The assay is described as follows: Affinity for the Endothelin B receptor: displacement of 125I endothelin from rat cortex plus cerebellum membrane preparation. It is filed as binding. Conditions: rat rear cortex plus cerebellum membranes, 25° C. for 60 minutes, pH 7.4, read-out: Endothelin B receptor IC50 in nanomoles. Here is the method:
2) Study of the Affinity for the Endothelin B Receptor
A membrane preparation is prepared from the rear cortex plus the cerebellum of a rat. The tissue is ground up in a POLYTRON in a 50 mM Tris buffer pH=7.4.
After 30 minutes at 250C (W.B.) the homogenate is centrifuged at 30,000 g for 15 minutes (2 centrifugations with intermediate take-up in the Tris buffer pH. 7.4).
The pellets are suspended in an incubation buffer (25 mM Tris, 5 microg/ml pepstatin A, 3 microg/ml aprotinin, 0.1 mM PMSF, 3mM EDTA, 1 mM EGTA pH 7.4).
2 ml aliquoted fractions are distributed in hemolysis tubes and 125I endothelin (approximately 50,000 dpm/tube) and the product to be studied are added. (The product is first tested at 3×10^-5 M three times). When the tested product displaces more than 50% of the radioactivity specifically bound to the receptor, it is tested again according to a range of 7 concentrations in order to determine the concentration which inhibits by 50% the radioactivity specifically bound to the receptor. In this way the 50% inhibitory concentration is determined.
as §1

Another assay relates to Endothelin. The assay is described as follows: Antagonistic activity of endothelin in a demedullated rat (inhibition of increase in arterial pressure induced by endothelin). It is filed as in vivo, Male Sprague-Dawley rats. The following applies: product 10 mg/kg injected (pudendal vein) 10 minutes before endothelin. Here is the method:
3) Test for Antagonistic Activity of Endothelin in a Demedullated Rat
Male Sprague-Dawley rats (250 to 350 g) are anaesthetized (sodium pentobarbital 60 mg/kg injected by intraperitoneal route). The animal is placed under assisted respiration and a bilateral section of the vagus nerves is carried out. The rat is then demedullated.
The average arterial pressure is recorded with a heparin catheter (PE50) introduced into the carotid of the animal and connected via a pressure sensor and an amplifier to a recorder (Gould pressure processor). A catheter is implanted in the pudendal vein in order to allow injection of the molecules to be studied. After a stabilization period (about 15 minutes), the product or the solvent is injected 10 minutes before a range of increasing doses of endothelin which are injected every 2 minutes (0.1-0.3-1-3-10 ug/kg).
The antagonistic activity of the products is estimated by the percentage inhibition of the increase in pressure induced by endothelin at doses of 3 and 10 ug/kg.

As a reminder, the IC50 is the concentration needed to halve the response being measured.

On to `CCCc1nc(Sc2ccc(OCC(=O)O)cc2)c(C(=O)O)n1Cc1cc2c(cc1Cl)OCO2` [Example 1, 4-((4-(carboxymethoxy)phenyl)thio)-1-((6-chloro-1,3-benzodioxol5-yl)methyl)2-propyl1H-imidazole5-carboxylic acid], for which the IC50 on Endothelin A receptor worked out at 2.5 nM. The half-inhibitory concentration (IC50) on Endothelin B receptor turned out to be 88.5 nM. Also, in the assay with Endothelin, the “% inhibition of vasoconstriction Et1 3 μg/kg” value is -52% and the “% inhibition of vasoconstriction Et1 10 μg/kg” value is listed as -50%.

On to `CC(C)c1nc(Sc2ccc(CCC(=O)O)cc2)c(C(=O)O)n1Cc1cc2c(cc1Cl)OCO2` [Example 3, 4-((4-(2-carboxyethyl)phenyl)thio)-1-((6-chloro-1,3-benzodioxol-5-yl)methyl)-2-(1-methylethyl)-1H-imidazole-5-carboxylic acid], for which the IC50 at Endothelin A receptor was 2.5 nM; at Endothelin B receptor, 78.4 nM. Also, the “% inhibition of vasoconstriction Et1 3 μg/kg” value in the assay with Endothelin was “+7%”. Besides, the “% inhibition of vasoconstriction Et1 10 μg/kg” value with Endothelin was -31%.
